From ChEMBL document CHEMBL4011633, “Donepezil-Based Central Acetylcholinesterase Inhibitors by Means of a "Bio-Oxidizable" Prodrug Strategy: Design, Synthesis, and in Vitro Biological Evaluation” (J Med Chem, 2017)
The source made the active and inactive calls. No cut-off for these calls is given here.

Assays:
Acetylcholinesterase [1] = molecular target: T1, Acetylcholinesterase (Homo sapiens, UniProt P22303); assay: Inhibition of AChE in human erythrocytes using acetylthiocholine iodide as substrate preincubated for 5 mins followed by substrate addition measured every minute for 10 mins by Ellman's spectrophotometric method; type: cell-based
Acetylcholinesterase [2] = molecular target: T1, Acetylcholinesterase; assay: Inhibition of AChE (unknown origin)
[3] = Effective permeability of compound at pH 7.4 at 100 uM after 4 hrs by PAMPA; type: physicochemical; conditions: read-out: Peff
Mus musculus [4] = assay: Toxicity in CD1 mouse kidney at 10 mg/kg, ip qd administered daily for 14 days by microscopic method; type: organism-based; conditions: in vivo, 336 h
Salmonella typhimurium [5] = assay: Genotoxicity in Salmonella typhimurium TAMix after 90 mins by Ames test; type: toxicity; conditions: salmonella enterica subsp. enterica serovar typhimurium, 1.5 h
Brain [6] = assay: Prodrug activation in CD1 mouse brain at 10 mg/kg, ip qd after 24 hrs by LC-MS/MS analysis; type: organism-based; conditions: in vivo
Mus musculus [7] = assay: Toxicity in CD1 mouse assessed as mortality at 10 mg/kg, ip qd administered daily for 14 days; type: organism-based; conditions: in vivo, 336 h
[8] = (§1) Prodrug activation in 2% PBS riboflavin at 25 uM assessed as (+/-)-1-[(3-Chlorophenyl)methyl]-4-[(5,6-dimethoxy-1-oxo-indan-2-yl)methyl]pyridin-1-ium-3-carboxamide Bromide formation after 180 mins in the presence of (+/-)-1-[(3-Chlorophenyl)methyl]-4-[(5,6-dimethoxy-1-oxo-indan-2-yl)methyl]pyridin-1-ium-3-carboxamide Bromide
Mus musculus [9] = assay: Toxicity in CD1 mouse brain at 10 mg/kg, ip qd administered daily for 14 days by macroscopic method; type: organism-based; conditions: in vivo, 336 h
Mus musculus [10] = assay: Toxicity in CD1 mouse heart at 10 mg/kg, ip qd administered daily for 14 days by microscopic method; type: organism-based; conditions: in vivo, 336 h
Mus musculus [11] = assay: Toxicity in CD1 mouse assessed as change in spleen texture at 10 mg/kg, ip qd administered for 14 days by microscopic method; type: organism-based; conditions: in vivo, 336 h
Mus musculus [12] = assay: Toxicity in CD1 mouse liver at 10 mg/kg, ip qd administered daily for 14 days by macroscopic method; type: organism-based; conditions: in vivo, 336 h
[13] = as §1, with “PBS NAD+” for “PBS”
Brain [14] = assay: Prodrug activation in CD1 mouse brain at 10 mg/kg, ip qd administered daily for 14 days by LC-MS/MS analysis; type: organism-based; conditions: in vivo, 336 h
Mus musculus [15] = assay: Toxicity in CD1 mouse brain at 10 mg/kg, ip qd administered daily for 14 days by microscopic method; type: organism-based; conditions: in vivo, 336 h
Salmonella typhimurium [16] = assay: Genotoxicity in Salmonella typhimurium TA98 after 90 mins by Ames test; type: toxicity; conditions: salmonella enterica subsp. enterica serovar typhimurium, 1.5 h
Mus musculus [17] = assay: Toxicity in CD1 mouse heart at 10 mg/kg, ip qd administered daily for 14 days by macroscopic method; type: organism-based; conditions: in vivo, 336 h
[18] = as §1, with “pH 7.4” for “2%”, “buffer” for “riboflavin”
[19] = as §1, with “0.1%” for “2%”, “PBS NAD+” for “PBS”
[20] = Prodrug activation in CD3OD solution assessed as (+/-)-1-[(3-Chlorophenyl)methyl]-4-[(5,6-dimethoxy-1-oxo-indan-2-yl)methyl]pyridin-1-ium-3-carboxamide Bromide formation at 10 mM after 4 to 10 mins in presence of DPPH radical solution by 1H NMR analysis
[21] = Antioxidant activity assessed as DPPH free radical scavenging after 40 mins incubation in dark; type: functional
[22] = as §1, with “10% methanolic silver nitrate” for “2% PBS riboflavin”
Mus musculus [23] = assay: Toxicity in CD1 mouse liver at 10 mg/kg, ip qd administered daily for 14 days by microscopic method; type: organism-based; conditions: in vivo, 336 h
[24] = Toxicity in ip dosed CD1 mouse assessed as mortality administered as qd after 48 hrs; type: organism-based; conditions: in vivo
Mus musculus [25] = assay: Toxicity in CD1 mouse kidney at 10 mg/kg, ip qd administered daily for 14 days by macroscopic method; type: organism-based; conditions: in vivo, 336 h
Mus musculus [26] = assay: Toxicity in CD1 mouse assessed as change in spleen texture at 10 mg/kg, ip qd administered for 14 days by macroscopic method; type: organism-based; conditions: in vivo, 336 h
Cholinesterase = Cholinesterase (Equus caballus, UniProt P81908)
Description: Inhibition of equine serum BChE using butyrylthiocholine iodide as substrate preincubated for 5 mins followed by substrate addition measured every minute for 10 mins by Ellman's spectrophotometric method

[27] = Selectivity index, ratio of IC50 for equine serum BChE to IC50 for AChE in human erythrocytes; type: cell-based
SH-SY5Y = assay: Cytotoxicity against human SH-SY5Y cells assessed as […] in cell viability at 0.1 to 1 mM after 24 hrs by fluorescence assay; type: cell-based; conditions: 1000 µM
Acetylcholinesterase [28] = molecular target: T1, Acetylcholinesterase; assay: Inhibition of human recombinant AChE-induced human amyloid beta (1 to 40 residues) aggregation at 100 uM after 24 hrs by thioflavine T fluorescence method
[29] = molecular target: Amyloid-beta precursor protein (Homo sapiens) (UniProt P05067); assay: Inhibition of amyloid beta (1 to 42 residues) (unknown origin) self-aggregation at 10 uM measured every 5 mins by ThT-fluorescence assay
Chain of Amyloid-beta precursor protein (Homo sapiens) (P05067 whole entry, the tested form may be a part): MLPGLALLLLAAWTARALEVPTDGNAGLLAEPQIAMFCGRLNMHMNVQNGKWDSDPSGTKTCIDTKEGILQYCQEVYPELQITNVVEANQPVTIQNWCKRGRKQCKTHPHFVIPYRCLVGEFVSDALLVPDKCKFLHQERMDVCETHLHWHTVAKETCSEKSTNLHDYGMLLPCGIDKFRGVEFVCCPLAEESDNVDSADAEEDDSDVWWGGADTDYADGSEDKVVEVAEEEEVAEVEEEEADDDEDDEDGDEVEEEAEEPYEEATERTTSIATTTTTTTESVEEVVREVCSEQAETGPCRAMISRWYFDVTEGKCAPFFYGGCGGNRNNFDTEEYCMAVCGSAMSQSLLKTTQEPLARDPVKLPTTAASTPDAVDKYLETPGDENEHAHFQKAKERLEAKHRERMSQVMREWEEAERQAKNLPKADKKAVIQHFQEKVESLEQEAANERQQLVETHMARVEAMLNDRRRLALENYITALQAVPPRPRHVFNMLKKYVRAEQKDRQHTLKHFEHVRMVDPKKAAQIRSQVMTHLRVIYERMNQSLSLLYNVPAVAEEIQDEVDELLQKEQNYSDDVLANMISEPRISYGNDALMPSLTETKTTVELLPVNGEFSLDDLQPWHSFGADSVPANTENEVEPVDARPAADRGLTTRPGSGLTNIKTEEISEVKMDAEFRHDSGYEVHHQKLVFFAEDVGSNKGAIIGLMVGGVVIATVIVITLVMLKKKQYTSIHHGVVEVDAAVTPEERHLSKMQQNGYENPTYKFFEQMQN

T1 sequence (P22303 whole entry): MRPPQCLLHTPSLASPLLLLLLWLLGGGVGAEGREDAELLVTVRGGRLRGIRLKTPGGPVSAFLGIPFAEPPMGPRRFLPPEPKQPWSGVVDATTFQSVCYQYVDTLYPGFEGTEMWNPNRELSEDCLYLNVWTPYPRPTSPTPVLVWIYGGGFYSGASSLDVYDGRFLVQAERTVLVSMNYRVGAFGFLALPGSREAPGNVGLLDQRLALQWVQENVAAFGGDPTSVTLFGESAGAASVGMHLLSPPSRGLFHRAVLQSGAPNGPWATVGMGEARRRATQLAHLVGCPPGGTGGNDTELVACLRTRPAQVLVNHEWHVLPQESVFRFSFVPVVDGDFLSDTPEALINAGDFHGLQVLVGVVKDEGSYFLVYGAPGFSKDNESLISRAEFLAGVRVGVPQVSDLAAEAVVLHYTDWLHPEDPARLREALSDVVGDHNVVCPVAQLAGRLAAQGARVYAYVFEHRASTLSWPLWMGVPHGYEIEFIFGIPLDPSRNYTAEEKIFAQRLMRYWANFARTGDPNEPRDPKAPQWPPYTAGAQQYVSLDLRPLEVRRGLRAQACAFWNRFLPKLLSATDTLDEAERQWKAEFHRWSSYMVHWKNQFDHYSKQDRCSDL
Chain of Cholinesterase (P81908 whole entry): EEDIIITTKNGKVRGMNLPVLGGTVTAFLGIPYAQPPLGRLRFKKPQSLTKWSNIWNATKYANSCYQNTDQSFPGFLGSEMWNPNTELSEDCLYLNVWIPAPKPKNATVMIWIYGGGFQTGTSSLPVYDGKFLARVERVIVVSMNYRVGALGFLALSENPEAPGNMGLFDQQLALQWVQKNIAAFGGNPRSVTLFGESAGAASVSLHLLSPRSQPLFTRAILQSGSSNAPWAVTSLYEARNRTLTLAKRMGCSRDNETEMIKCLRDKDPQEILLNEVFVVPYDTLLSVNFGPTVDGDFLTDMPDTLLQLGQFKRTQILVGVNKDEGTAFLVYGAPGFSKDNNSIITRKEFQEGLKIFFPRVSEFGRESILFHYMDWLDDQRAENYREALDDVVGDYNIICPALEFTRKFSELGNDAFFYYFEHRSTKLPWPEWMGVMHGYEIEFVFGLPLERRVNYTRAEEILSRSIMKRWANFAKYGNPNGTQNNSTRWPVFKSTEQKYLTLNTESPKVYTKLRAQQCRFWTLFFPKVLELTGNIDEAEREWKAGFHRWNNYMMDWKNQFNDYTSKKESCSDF

SMILES: COc1cc2c(cc1OC)C(=O)C(CC1C=CN(Cc3ccccc3C)C=C1C(N)=O)C2 (stereo not given)
- IC50 (Acetylcholinesterase [1]): > 1 µM

SMILES: COC(=O)c1cc2c(OC(=O)N(C)C)cccc2[n+](C)c1
- IC50 (Acetylcholinesterase [2]): 0.02 µM

SMILES: CC(=O)C1=CN(Cc2ccccc2C)C=CC1CC1Cc2cc3c(cc2C1=O)OCO3 (stereo not given)
- IC50 (Acetylcholinesterase [1]): > 1 µM
- Papp at 4 h, 100 µM [3]: 14.3 ×10⁻⁶ cm/s

SMILES: COC(=O)C1=CN(C)c2cccc(OC(=O)N(C)C)c2C1
- IC50 (Acetylcholinesterase [2]): > 1000 µM

SMILES: CC(=O)C1=CN(Cc2ccccc2C)C=CC1CC1Cc2cc(C)ccc2C1=O (stereo not given)
- IC50 (Acetylcholinesterase [1]): > 1 µM

SMILES: CC(=O)C1=CN(Cc2ccccc2C)C=CC1CC1Cc2cc(Cl)ccc2C1=O (stereo not given)
- IC50 (Acetylcholinesterase [1]): > 1 µM

SMILES: COc1ccc2c(c1)CC(CC1C=CN(Cc3ccccc3C)C=C1C(C)=O)C2=O (stereo not given)
- IC50 (Acetylcholinesterase [1]): > 1 µM
- Papp at 4 h, 100 µM [3]: 14.8 ×10⁻⁶ cm/s

SMILES: COc1cc2c(cc1OC)C(=O)C(CC1C=CN(Cc3cccc(Cl)c3)C=C1C(N)=O)C2 (stereo not given)
- Activity (Mus musculus [4]): Non-Toxic
- Activity (Salmonella typhimurium [5]): Non-Toxic
- Drug metabolism (Brain [6]): Metabolite_Notdetected
- Activity (Mus musculus [7]): Non-Toxic
- IC50 (Acetylcholinesterase [1]): > 1 µM
- Drug metabolism [8]: 77.9%
- Activity (Mus musculus [9]): Non-Toxic
- Activity (Mus musculus [10]): Non-Toxic
- Activity (Mus musculus [11]): Non-Toxic
- Activity (Mus musculus [12]): Non-Toxic
- Drug metabolism [13]: 39.6%
- Papp at 4 h, 100 µM [3]: 25.6 ×10⁻⁶ cm/s
- Drug metabolism (Brain [14]): Metabolite_Notdetected
- Activity (Mus musculus [15]): Non-Toxic
- Activity (Salmonella typhimurium [16]): Non-Toxic
- Activity (Mus musculus [17]): Non-Toxic
- Drug metabolism [18]: 1.6%
- Drug metabolism [19]: 2.9%
- Drug metabolism [20]: Metabolite detected
- EC50 [21]: 90 µM
- Drug metabolism [22]: 28%
- Activity (Mus musculus [23]): Non-Toxic
- LD50 at 48 h [24]: > 50 mg/kg
- Activity (Mus musculus [25]): Non-Toxic
- Activity (Mus musculus [26]): Non-Toxic

SMILES: CNC(=O)c1c[n+](Cc2ccccc2)ccc1CC1Cc2cc(OC)c(OC)cc2C1=O (racemic)
- IC50 (Acetylcholinesterase [1]): > 1 µM
- IC50 (Cholinesterase): 4.77 µM

SMILES: COc1cc2c(cc1OC)C(=O)C(Cc1cc[n+](Cc3ccccc3Cl)cc1C(C)=O)C2 (racemic)
- IC50 (Acetylcholinesterase [1]): 0.018 µM
- Ratio IC50 [27]: 106
- IC50 (Cholinesterase): 1.92 µM

SMILES: COC(=O)c1c[n+](Cc2ccccc2)ccc1CC1Cc2cc(OC)c(OC)cc2C1=O (racemic)
- IC50 (Acetylcholinesterase [1]): 0.0256 µM
- Ratio IC50 [27]: 119
- IC50 (Cholinesterase): 3.06 µM

SMILES: COc1cc2c(cc1OC)C(=O)C(Cc1cc[n+](Cc3ccccc3)cc1C#N)C2 (racemic)
- IC50 (Acetylcholinesterase [1]): 0.00292 µM

SMILES: CC(=O)c1c[n+](Cc2ccccc2C)ccc1CC1Cc2cc(C)ccc2C1=O (racemic)
- IC50 (Acetylcholinesterase [1]): 0.091 µM
- Ratio IC50 [27]: 41.9
- IC50 (Cholinesterase): 3.81 µM

SMILES: CC(=O)c1c[n+](Cc2ccccc2C)ccc1CC1Cc2cc(C)c(C)cc2C1=O (racemic)
- IC50 (Acetylcholinesterase [1]): 0.0277 µM
- Ratio IC50 [27]: 6.95

SMILES: COc1cc2c(cc1OC)C(=O)C(Cc1cc[n+](Cc3ccccc3C)cc1C(N)=O)C2 (racemic)
- IC50 (Acetylcholinesterase [1]): 0.678 µM
- IC50 (Cholinesterase): > 10 µM

SMILES: COc1cc2c(cc1OC)C(=O)C(Cc1cc[n+](Cc3cccc(Cl)c3)cc1C(N)=O)C2.[Br-] (racemic)
- Activity (Salmonella typhimurium [5]): Non-Toxic
- Activity (SH-SY5Y): Non-Toxic
- IC50 (Acetylcholinesterase [1]): 0.041 µM
- inhibition (Acetylcholinesterase [28]): 41%
- Papp at 4 h, 100 µM [3]: 0.15 ×10⁻⁶ cm/s
- Activity (Salmonella typhimurium [16]): Non-Toxic
- inhibition [29]: 25%
- IC50 (Cholinesterase): > 10 µM
- LD50 at 48 h [24]: 70 mg/kg

SMILES: CNC(=O)c1c[n+](Cc2ccccc2C)ccc1CC1Cc2cc(OC)c(OC)cc2C1=O (racemic)
- IC50 (Acetylcholinesterase [1]): 1 to 10 µM

SMILES: COc1cc2c(cc1OC)C(=O)C(Cc1cc[n+](Cc3cccc(C)c3)cc1C(C)=O)C2 (racemic)
- IC50 (Acetylcholinesterase [1]): 0.014 µM
- Ratio IC50 [27]: 427
- IC50 (Cholinesterase): 5.99 µM

SMILES: COc1ccc2c(c1)CC(Cc1cc[n+](Cc3ccccc3C)cc1C(C)=O)C2=O.[Br-] (racemic)
- Papp at 4 h, 100 µM [3]: 0.3 ×10⁻⁶ cm/s
- Ratio IC50 [27]: 133

SMILES: COC(=O)c1c[n+](Cc2ccccc2C)ccc1CC1Cc2cc(OC)c(OC)cc2C1=O (racemic)
- IC50 (Acetylcholinesterase [1]): 0.0058 µM
- Ratio IC50 [27]: 309
- IC50 (Cholinesterase): 1.79 µM

SMILES: CC(=O)c1c[n+](Cc2ccccc2C)ccc1CC1Cc2cc(Cl)ccc2C1=O (racemic)
- Ratio IC50 [27]: 13.9

SMILES: COc1cc2c(cc1OC)C(=O)C(Cc1cc[n+](Cc3cccc(Cl)c3)cc1C(C)=O)C2 (racemic)
- IC50 (Acetylcholinesterase [1]): 0.00327 µM
- Ratio IC50 [27]: 1020

SMILES: CC(=O)c1c[n+](Cc2ccccc2C)ccc1CC1Cc2cc3c(cc2C1=O)OCO3 (racemic)
- Ratio IC50 [27]: 26.9

SMILES: COc1cc2c(cc1OC)C(=O)C(CC1CCN(Cc3ccccc3)CC1)C2 (stereo not given) [DONEPEZIL]
- Activity [21]: inactive
- LD50 at 48 h [24]: 22.5 mg/kg

SMILES: CCN(C)C(=O)Oc1cccc([C@H](C)N(C)C)c1 [RIVASTIGMINE]
- LD50 at 48 h [24]: 6.2 mg/kg
